Results from patent US20030186892A1, “Enhancement of endogenous gonadotropin production” (priority 2002, published 2003).

Columns and labels:
testosterone = conditions: 5 mg b.i.d. (Group B) compared with 10 mg q.d. (Group C), oral
Description: Twenty subjects were assigned to each dosing group. Dosing groups were dosed sequentially, beginning with 5 mg q.d. group (Group A). Dosing for the 5 mg b.i.d. group (Group B) commenced 2 weeks after the initiation of Group A and the dosing for the 10 mg q.d. group (Group C) began 2 weeks after initiation of the 5 mg b.i.d. group. […] For all measurements, the final value obtained before the start of the study drug administration was used as the baseline value for that variable.

[1] = in vivo
Description: A study was conducted to determine the bioavailability of leuprolide acetate when it was administered by the sublingual route. The study was conducted in fifteen healthy postmenopausal or surgically sterilized female volunteers. This study was conducted according to a single-dose, fasting, four-period, open-label, randomized design. […] 4.5 mg or a 1 mg subcutaneous dose. […] Five-ml plasma samples were collected by venipuncture prior to the study and at suitable time intervals after dosing. Plasma leuprolide acetate concentrations data was tabulated and the descriptive statistics were computed.

CCNC(=O)[C@@H]1CCCN1C(=O)[C@H](CCCNC(=N)N)NC(=O)[C@H](CC(C)C)NC(=O)[C@@H](CC(C)C)NC(=O)[C@H](Cc1ccc(O)cc1)NC(=O)[C@H](CO)NC(=O)[C@H](Cc1c[nH]c2ccccc12)NC(=O)[C@H](Cc1c[nH]cn1)NC(=O)[C@@H]1CCC(=O)N1 [leuprolide acetate]
Elevation of plasma testosterone, comparison of regimens (testosterone): more significant elevation of plasma testosterone | Administered sublingual dose absorbed compared to subcutaneous reference [1]: Approximately 1%
